# Results published in patent publication US11780832B2, “Lactivicin compounds, their preparation and use as antibacterial agents” (priority 2021, dated 2023).
# Read-outs that look alike come from different tables or passages of the source.
# Legend:
# Assay in all cases: MIC, CLSI broth microdilution
# Assay type in all cases: cell-based
# [1] = system: Acinetobacter baumannii ATCC 19606; conditions: ATCC19606
# Procedure: (§1) Gram-negative and Gram-positive bacterial strains used during the in vitro minimum inhibitory concentration (MIC) determination were obtained either from the American Type Culture Collection (ATCC) or from clinical specimens. All strains were characterized genotypically and the respective antibiotic resistance markers for each strain were identified.
# (§2) Isolates were sub-cultured onto appropriate media and stocked in skim milk at −80° C. Following two subcultures from frozen stock, in vitro antimicrobial susceptibility testing was performed using the Clinical and Laboratory Standards Institute (CLSI) broth microdilution method. Briefly, fresh cultures were suspended in culture media to give a final stock inoculum size of 5×10^7 colony forming units per milliliter of broth (CFU/mL). […] 100 μL of the stock solutions were added to the first wells in a 96-well plate and were then diluted using a 2-fold dilution method to give a range of 32-0.025 μg/mL. 100 μL of the bacterial suspensions were then added to the 96-well plates to give a final working inoculum size of 5×10^5 CFU/mL. The final compound concentration range was 16-0.0125 μg/mL. […] MICs for comparator agents were determined using custom-designed, in-house prepared 96-well broth microdilution panels.
# [2] = system: Citrobacter freundii species complex OXA-181
# Procedure: as §1, §2
# [3] = system: Enterobacter cloacae species complex NDM-1
# Procedure: as §1, §2
# [4] = system: Escherichia coli ATCC 25922; conditions: ATCC25922
# Procedure: as §1, §2
# Escherichia coli CMY-2 = conditions: CMY2
# Procedure: as §1, §2
# [5] = system: Escherichia coli CTX-M-15; conditions: CTXM15
# Procedure: as §1, §2
# [6] = system: Escherichia coli Empty pSMART plasmid
# Procedure: as §1, §2
# [7] = system: Escherichia coli Isogenic TEM-10
# Procedure: as §1, §2
# [8] = system: Escherichia coli Isogenic TEM-26
# Procedure: as §1, §2
# Escherichia coli SHV-12 = conditions: SHV12
# Procedure: as §1, §2
# [9] = system: Escherichia coli pSMART_Cfreundii_AmpC
# Procedure: as §1, §2
# [10] = system: Escherichia coli pSMART_Ecloacae_AmpC
# Procedure: as §1, §2
# [11] = system: Klebsiella aerogenes VIM-1, SHV-12
# Procedure: as §1, §2
# [12] = system: Klebsiella oxytoca KPC-2, TEM-1
# Procedure: as §1, §2
# [13] = system: Klebsiella pneumoniae KPC-2; conditions: KPC2
# Procedure: as §1, §2
# [14] = system: Klebsiella pneumoniae KPC-3
# Procedure: as §1, §2
# [15] = system: Klebsiella pneumoniae OXA-163, OXA-1_OXA-30, SHV-1, TEM-1
# Procedure: as §1, §2
# [16] = system: Klebsiella pneumoniae OXA-48, SHV-1
# Procedure: as §1, §2
# [17] = system: Klebsiella pneumoniae SHV-12
# Procedure: as §1, §2
# [18] = system: Pseudomonas aeruginosa ATCC 27853; conditions: ATCC27853
# Procedure: as §1, §2
# [19] = system: Pseudomonas aeruginosa AmpC overexpressed
# Procedure: as §1, §2
# [20] = system: Pseudomonas aeruginosa OprD negative
# Procedure: as §1, §2
# [21] = system: Serratia marcescens AmpC overexpressed
# Procedure: as §1, §2
# [22] = system: Serratia marcescens SME-2; conditions: SME2
# Procedure: as §1, §2
# [23] = Citrobacter freundii species complex, OXA-181, read-out: MIC
Structure (SMILES),MIC [1],MIC [3],MIC [4],MIC (Escherichia coli CMY-2),MIC [5],MIC [6],MIC [7],MIC [8],MIC (Escherichia coli SHV-12),MIC [9],MIC [10],MIC [11],MIC [13],MIC [15],MIC [16],MIC [18],MIC [19],MIC [20],MIC [21],MIC [22],also measured
"Nc1nc(/C(=N/OC2(C(=O)O)CCC2)C(=O)N[C@H]2CON(C3(C(=O)O)C[C@H](N4C(=O)c5cc(O)c(O)cc5C4=O)C(=O)O3)C2=O)cs1 (stereo partly drawn) [Cmpd 4, (4S)-2-[(4S)-4-{[(2Z)-2-(2-amino-1,3-thiazol-4-yl)-2-{[(1-carboxycyclobutyl)oxy]imino}acetyl]amino}-3-oxo-1,2-oxazolidin-2-yl]-4-(5,6-dihydroxy-1,3-dioxo-1,3-dihydro-2H-isoindol-2-yl)-5-oxooxolane-2-carboxylic acid]",0.12 µg/mL,0.25 µg/mL,0.25 µg/mL,2 µg/mL,1 µg/mL,≤ 0.015 µg/mL,0.03 µg/mL,0.06 µg/mL,1 µg/mL,0.12 µg/mL,0.06 µg/mL,1 µg/mL,0.06 µg/mL,0.06 µg/mL,≤ 0.015 µg/mL,0.25 µg/mL,1 µg/mL,1 µg/mL,0.12 µg/mL,0.06 µg/mL,"MIC [2, 23]: 0.06 µg/mL; MIC ([12]; KPC-2, TEM-1, read-out: MIC): ≤ 0.015 µg/mL; MIC ([14]; KPC3, KPC-3, read-out: MIC): 0.03 µg/mL; MIC ([17]; SHV12, SHV-12, read-out: MIC): 0.03 µg/mL"
"CN1CCC(O/N=C(\C(=O)N[C@H]2CON(C3(C(=O)O)C[C@H](N4C(=O)c5cc(O)c(O)cc5C4=O)C(=O)O3)C2=O)c2csc(N)n2)(C(=O)O)CC1 (stereo partly drawn) [Cmpd 9, 4-({(Z)-[1-(2-amino-1,3-thiazol-4-yl)-2-({(4S)-2-[(4S)-2-carboxy-4-(5,6-dihydroxy-1,3-dioxo-1,3-dihydro-2H-isoindol-2-yl)-5-oxooxolan-2-yl]-3-oxo-1,2-oxazolidin-4-yl}amino)-2-oxoethylidene]amino}oxy)-1-methylpiperidine-4-carboxylic acid]",2 µg/mL,8 µg/mL,0.5 µg/mL,2 µg/mL,4 µg/mL,0.12 µg/mL,0.12 µg/mL,0.12 µg/mL,2 µg/mL,0.25 µg/mL,0.25 µg/mL,0.5 µg/mL,0.25 µg/mL,0.25 µg/mL,0.12 µg/mL,4 µg/mL,> 16 µg/mL,> 16 µg/mL,4 µg/mL,0.5 µg/mL,"MIC [2, 23]: 0.25 µg/mL; MIC ([12]; KPC-2, TEM-1, read-out: MIC): 0.03 µg/mL; MIC ([14]; KPC3, KPC-3, read-out: MIC): 0.25 µg/mL; MIC ([17]; SHV12, SHV-12, read-out: MIC): 0.12 µg/mL"
"Nc1nc(/C(=N/OC2(C(=O)O)COC2)C(=O)N[C@H]2CON(C3(C(=O)O)C[C@H](N4C(=O)c5cc(O)c(O)cc5C4=O)C(=O)O3)C2=O)cs1 (stereo partly drawn) [Cmpd 5, (4S)-2-[(4S)-4-{[(2Z)-2-(2-amino-1,3-thiazol-4-yl)-2-{[(3-carboxyoxetan-3-yl)oxy]imino}acetyl]amino}-3-oxo-1,2-oxazolidin-2-yl]-4-(5,6-dihydroxy-1,3-dioxo-1,3-dihydro-2H-isoindol-2-yl)-5-oxooxolane-2-carboxylic acid]",0.12 µg/mL,0.25 µg/mL,0.25 µg/mL,4 µg/mL,2 µg/mL,≤ 0.015 µg/mL,0.03 µg/mL,0.03 µg/mL,1 µg/mL,0.25 µg/mL,0.06 µg/mL,2 µg/mL,0.06 µg/mL,0.06 µg/mL,≤ 0.015 µg/mL,0.25 µg/mL,1 µg/mL,2 µg/mL,0.25 µg/mL,0.12 µg/mL,"MIC [2, 23]: 0.06 µg/mL; MIC ([12]; KPC-2, TEM-1, read-out: MIC): ≤ 0.015 µg/mL; MIC ([14]; KPC3, KPC-3, read-out: MIC): 0.03 µg/mL; MIC ([17]; SHV12, SHV-12, read-out: MIC): 0.03 µg/mL"
"Nc1nc(/C(=N/OC2(C(=O)O)CC3CCC(C2)O3)C(=O)N[C@H]2CON(C3(C(=O)O)C[C@H](N4C(=O)c5cc(O)c(O)cc5C4=O)C(=O)O3)C2=O)cs1 (stereo partly drawn) [Cmpd 13, 3-({(Z)-[1-(2-amino-1,3-thiazol-4-yl)-2-({(4S)-2-[(4S)-2-carboxy-4-(5,6-dihydroxy-1,3-dioxo-1,3-dihydro-2H-isoindol-2-yl)-5-oxooxolan-2-yl]-3-oxo-1,2-oxazolidin-4-yl}amino)-2-oxoethylidene]amino}oxy)-8-oxabicyclo[3.2.1]octane-3-carboxylic acid]",0.12 µg/mL,1 µg/mL,0.12 µg/mL,0.5 µg/mL,4 µg/mL,0.12 µg/mL,0.03 µg/mL,0.03 µg/mL,2 µg/mL,0.06 µg/mL,0.06 µg/mL,0.25 µg/mL,0.25 µg/mL,0.12 µg/mL,0.0149 µg/mL,0.25 µg/mL,1 µg/mL,0.25 µg/mL,0.12 µg/mL,0.25 µg/mL,"MIC [2, 23]: 0.0149 µg/mL; MIC ([12]; KPC-2, TEM-1, read-out: MIC): 0.0149 µg/mL; MIC ([14]; KPC3, KPC-3, read-out: MIC): 0.06 µg/mL; MIC ([17]; SHV12, SHV-12, read-out: MIC): 0.03 µg/mL"
"CC(C)(O/N=C(\C(=O)N[C@H]1CON(C2(C(=O)O)C[C@H](N3C(=O)c4cc(O)c(O)nc4C3=O)C(=O)O2)C1=O)c1csc(N)n1)C(=O)O (stereo partly drawn) [Cmpd 36, (4S)-2-[(4S)-4-{[(2Z)-2-(2-amino-1,3-thiazol-4-yl)-2-{[(2-carboxypropan-2-yl)oxy]imino}acetyl]amino}-3-oxo-1,2-oxazolidin-2-yl]-4-(2,3-dihydroxy-5,7-dioxo-5,7-dihydro-6H-pyrrolo[3,4-b]pyridin-6-yl)-5-oxooxolane-2-carboxylic acid]",0.12 µg/mL,0.25 µg/mL,0.06 µg/mL,1 µg/mL,2 µg/mL,0.06 µg/mL,0.0149 µg/mL,0.0149 µg/mL,1 µg/mL,0.06 µg/mL,0.03 µg/mL,2 µg/mL,0.12 µg/mL,0.06 µg/mL,0.0149 µg/mL,0.12 µg/mL,0.5 µg/mL,0.12 µg/mL,0.06 µg/mL,0.06 µg/mL,MIC ([2]; Citrobacter freundii): 0.0149 µg/mL; MIC [12]: 0.0149 µg/mL; MIC ([14]; KPC3): 0.0149 µg/mL; MIC ([17]; SHV12): 0.0149 µg/mL
"Nc1nc(/C(=N/OC2(C(=O)O)CC3CCC(C2)O3)C(=O)N[C@H]2CON(C3(C(=O)O)C[C@H](N4Cc5cc(O)c(O)cc5C4=O)C(=O)O3)C2=O)cs1 (stereo partly drawn) [Cmpd 30, 3-({(Z)-[1-(2-amino-1,3-thiazol-4-yl)-2-({(4S)-2-[(4S)-2-carboxy-4-(5,6-dihydroxy-1-oxo-1,3-dihydro-2H-isoindol-2-yl)-5-oxooxolan-2-yl]-3-oxo-1,2-oxazolidin-4-yl}amino)-2-oxoethylidene]amino}oxy)-8-oxabicyclo[3.2.1]octane-3-carboxylic acid]",0.5 µg/mL,4 µg/mL,1 µg/mL,4 µg/mL,8 µg/mL,1 µg/mL,0.12 µg/mL,0.5 µg/mL,8 µg/mL,0.25 µg/mL,0.25 µg/mL,0.12 µg/mL,0.03 µg/mL,1 µg/mL,0.06 µg/mL,4 µg/mL,4 µg/mL,1 µg/mL,0.5 µg/mL,0.5 µg/mL,"MIC [2, 23]: 0.12 µg/mL; MIC ([12]; KPC-2, TEM-1, read-out: MIC): 0.03 µg/mL; MIC ([14]; KPC3, KPC-3, read-out: MIC): 0.12 µg/mL; MIC ([17]; SHV12, SHV-12, read-out: MIC): 0.25 µg/mL"
